Data from US5763406A, “Method for the treatment of conditions caused by herpes virus infections” (Carlbiotech, Ltd. A/S, priority 1991, dated 1998).

What was measured:
[1] = Systemic or local effects reported by treated patients; assay type: in vivo, human
HSV-1 infection = experiment: Patients' earlier aciclovir treatment of HSV-1 outbreaks (case history); assay type: in vivo, human
Description: The patient had experienced similar lesions during the past 18 years, primarily during the winter months. They would usually experience 3-5 outbreaks each winter lasting 10-14 days before complete resolution. One year ago, they applied aciclovir topical to the lesions and on that occasion, resolution occured in 6-8 days.
When the lesions are treated with a 5% aciclovir ointment, topically, resolution is normally achieved within 6-7 days. […] On this occasion, […] denied any recent use of any topical or systemic therapy.
The patient had experienced outbreaks from HSV-1 […]. Five years ago the patient started to use aciclovir topically on a regular basis, but switched to take aciclovir orally 11/2 years ago. Normally the outbreaks would be on the lips, but occasionally the outbreaks would also appear on the neck and on the buccal mucosa. Without any form of medication, complete resolution would happen within 2-3 weeks and complete resolution by using aciclovir orally would happen within 1-2 weeks.

SMILES	systemic or local effects ([1]; Example 1, 10 mg/ml topical three times daily)	systemic or local effects ([1]; Example 4, 10 mg/ml topical four times in 36 hours)	systemic or local effects ([1]; Example 5, 10 mg/ml topical two times daily)	time to resolution (HSV-1 infection; Example 1 patient, aciclovir topical one year ago) [days]	time to resolution (HSV-1 infection; Example 2 patient, 5% aciclovir ointment, topically) [days]	effect of very early treatment of the lesions (HSV-1 infection; Example 2 patient, aciclovir)	effect from the use of aciclovir (HSV-1 infection; Example 4 patient)	time to complete resolution (HSV-1 infection; Example 5 patient, aciclovir orally)
C[C@@H](N)C(=O)N[C@@H](CO)C(=O)N[C@H](C(=O)N[C@H](C(=O)N[C@H](C(=O)N[C@@H](CC(N)=O)C(=O)N[C@@H](Cc1ccc(O)cc1)C(=O)N[C@H](C(N)=O)[C@@H](C)O)[C@@H](C)O)[C@@H](C)O)[C@@H](C)O [(D-Ala^1)-Peptide-T Amide, D-Ala-Ser-Thr-Thr-Thr-Asn-Tyr-Thr-NH2]	did not report any systemic or local effects other than those noted above	did not experience any systemic or local effects other than those noted above	did not observe any systemic or local effects other than those noted above					
Nc1nc2c(ncn2COCCO)c(=O)[nH]1 [aciclovir]				6 to 8	6 to 7	has not been able to stop the vesicles developing into painful ulcers although the ulcers tend to decrease in size	never experienced any effect	1-2 weeks
